From paper PMC11681159, “Bee pollen peptides as potent tyrosinase inhibitors with anti-melanogenesis effects in murine b16f10 melanoma cells and zebrafish embryos” (Scientific Reports, 2024)
Ends that are not written are not given here.

Tests used:
Trp-2 = test: qRT-PCR, Trp-2 mRNA; assay type: cell-based, mouse; conditions: B16F10, 48 h
Method: A 6-well plate was used to seed B16F10 cells at 1 × 10^5 cells per well prior to overnight incubation in a 5% CO2 humid atmosphere at 37°C. […] Harvesting was conducted via removal of the supernatant, and the cells were rinsed twice in PBS (phosphate-buffered saline). The PureLink™RNA Mini Kit (Invitrogen™, USA) was then used to extract total RNA in line with the guidance of the manufacturer. RNA concentration was assessed at 260 nm with a NanoDrop 2000 UV-Vis spectrophotometer (Thermo Fisher Scientific, Inc.). Oligo-dT primers and a Precision nanoScript II Reverse Transcription Kit (PrimerDesign, Camberley, UK) were used to perform the reverse transcription of 1 µg of total RNA to cDNA in line with the guidance of the manufacturer. MyGo Pro®Real time PCR apparatus (IT-IS International Ltd., Stokesley, UK) was then used to perform the qRT-PCR assays in which 20 µL of PCR reaction contained 1 µL of cDNA, 7 µL of ultrapure water, 1 µL of each primer […], and 10 µL of 2×qPCRBIO SyGreen Mix (PCR Biosystems Ltd, London, UK). This research made use of the following PCR primers: Gapdh forward 5’-[…]-3’, Gapdh reverse 5’-[…]-3’, Tyr forward 5’-[…]-3’, Tyr reverse 5’-[…]-3’, Trp-1 forward 5’-[…]-3’, Trp-1 reverse 5’-[…]-3’, Trp-2 forward 5’-[…]-3’, Trp-2 reverse 5’-[…]-3’, Mitf forward 5’-[…] − 3’, Mitf reverse 5’-[…]-3’. The initial stage of the process of qRT-PCR amplification was the activation step of thermal treatment where a temperature of 95 °C was used for 2 min, with 45 subsequent cycles comprising 10 s at 95 °C, 20 s at 60 °C, and 30 s at 72 °C, before embarking upon the final melting curve from 60 to 97 °C with 1 min for each step. The relative gene expression level could then be calculated via the cycle threshold (Ct) value, while the role of endogenous control for data normalization was occupied by Gapdh (the housekeeping gene). To calculate relative gene expression, the formula given below can be employed:2 [drawing 2]
where the heightened threshold cycle for the target gene is given as ΔΔCt.

Tyr [1] = test: qRT-PCR, Tyr mRNA; assay type: cell-based, mouse; conditions: B16F10, 48 h
Method: A 6-well plate was used to seed B16F10 cells at 1 × 10^5 cells per well prior to overnight incubation in a 5% CO2 humid atmosphere at 37°C. […] Harvesting was conducted via removal of the supernatant, and the cells were rinsed twice in PBS (phosphate-buffered saline). The PureLink™RNA Mini Kit (Invitrogen™, USA) was then used to extract total RNA in line with the guidance of the manufacturer. RNA concentration was assessed at 260 nm with a NanoDrop 2000 UV-Vis spectrophotometer (Thermo Fisher Scientific, Inc.). Oligo-dT primers and a Precision nanoScript II Reverse Transcription Kit (PrimerDesign, Camberley, UK) were used to perform the reverse transcription of 1 µg of total RNA to cDNA in line with the guidance of the manufacturer. MyGo Pro®Real time PCR apparatus (IT-IS International Ltd., Stokesley, UK) was then used to perform the qRT-PCR assays in which 20 µL of PCR reaction contained 1 µL of cDNA, 7 µL of ultrapure water, 1 µL of each primer […], and 10 µL of 2×qPCRBIO SyGreen Mix (PCR Biosystems Ltd, London, UK). […] The relative gene expression level could then be calculated via the cycle threshold (Ct) value, while the role of endogenous control for data normalization was occupied by Gapdh (the housekeeping gene). […]

Tyr [2] = test: Western blot, TYR protein; assay type: cell-based, mouse; conditions: B16F10, 48 h
Method: Western blot analysis was performed to measure TYR (TYR, TRP-1, TRP-2, and MITF) in B16F10 cells in line with the approach discussed by Yoon et al.[65]. whereby the B16F10 cells underwent treatment for 48 h using various peptide amounts ([…]) and also with arbutin (0.2 mM). Following this process, the cells were lysed using NP40 Cell Lysis Buffer with protease inhibitor cocktail supplementation. Next, 12% sodium dodecyl sulfate poly-acrylamide (SDS-PAGE) gel electrophoresis was used to extract equal quantities of protein from each sample, with subsequent transfer to PVD (polyvinylidene fluoride) membranes (Millipore, Bedford, MA, USA). The membrane was blocked overnight with 3% skimmed milk (w/v) in TBST with 0.5% Tween 20 at 4 °C and then washed thrice in TBST. The rabbit polyclonal anti-TYR antibody (dilution 1:1000), anti-TRP-1 antibody (dilution 1:1000), anti-TRP-2 antibody and anti-MITF antibody (dilution 1:1000) obtained from Abcam (USA), were used respectively to detect the TYR, TRP-1, TRP-2, and MITF bands. After thrice washing again in TBST, secondary antibodies (dilution 1:5000) were added to the membranes for 1 h of incubation at room temperature before another triplicate washing in TBST. […] The software facilitated the identification and quantification of protein expression levels.

B16F10 melanoma cells = test: Melanin content assay in B16F10 cells; assay type: cell-based, mouse; conditions: VY-9 1.6 µM, 48 h, 405 nm
Method: In order to assess melanin content, culture flasks were used to grow B16F10 cells (1 × 10^5 cells/flask) for 24 h. […] Cell harvesting was conducted by trypsinization and the cells were then rinsed twice in cold PBS. The cell pellets were then dissolved in 0.3 mL of 1 N NaOH to produce solutions which were heated to 90 °C for a one-hour period. The lysates were then placed in a centrifuge for 10 min at 3,000 × g whereupon a microplate reader was used to assess the melanin quantity at 405 nm. The protein content in the supernatant was evaluated using the Bradford protein assay with the findings presented in the form of a percentage of the control. Arbutin (0.2 mM) served as the positive control. Each trial was carried out in triplicate, with results presented in the form of mean ± standard deviation.

mushroom TYR = molecular target: T1, mushroom TYR (Agaricus bisporus, UniProt C7FF04); test: Kinetic study, Lineweaver-Burk, di-phenolase; assay type: biochemical; conditions: Km rose, Vmax unchanged
T1 construct: purchased Sigma-Aldrich, Merck T3824
Method: It is necessary to determine the type of TYR inhibitory activity which takes place. This can be achieved through a modified version of an assay described by Feng et al.[39]. The process starts by dissolving the peptide VY-9 in deionized water at various concentrations (0, 0.25, 0.5, and 1 mM). Each VY-9 peptide sample at each concentration (35 µL) was combined 15 µL of mushroom TYR (333 U/mL in 50 mM PBS pH 6.8) prior to 5 min of incubation at 25 °C. Subsequently, various concentrations of substrate were introduced, namely 0–2 mM L-tyrosine in the case of mono-phenolase, and 0–12 mM L-DOPA for di-phenolase. These new mixtures underwent further incubation for 30 min at the same temperature of 25 °C. Upon completion, a spectrophotometer was used to measure the absorbance and determine the inhibitory activity at 490 nm. Lineweaver-Burk plots were then used in calculating Km and Vmax, the kinetic parameters. Km is indicated by the intersection point on the X-axis while Vmax is indicated by the intersection point on the Y-axis in the mode of TYR inhibition under examination. Construction of the plots linked the substrate concentration reciprocal on the X-axis and the absorbance reciprocal (at 490 nm) on the Y-axis, to represent the starting rate for the enzymatic reaction. […]

T1 sequence (C7FF04 2-392): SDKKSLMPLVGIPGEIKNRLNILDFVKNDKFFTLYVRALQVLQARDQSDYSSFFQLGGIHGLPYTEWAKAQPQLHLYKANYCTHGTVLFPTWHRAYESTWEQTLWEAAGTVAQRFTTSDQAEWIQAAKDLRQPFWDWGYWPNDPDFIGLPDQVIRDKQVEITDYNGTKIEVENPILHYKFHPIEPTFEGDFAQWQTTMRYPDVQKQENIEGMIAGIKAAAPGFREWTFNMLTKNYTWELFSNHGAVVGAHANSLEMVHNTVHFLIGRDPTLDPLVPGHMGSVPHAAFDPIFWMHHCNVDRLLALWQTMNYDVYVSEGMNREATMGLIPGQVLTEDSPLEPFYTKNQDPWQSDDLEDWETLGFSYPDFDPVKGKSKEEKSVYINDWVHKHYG

Which results are given for “VDGYPAAGY [VY-9, Val-Asp-Gly-Tyr-Pro-Ala- Ala-Gly-Tyr]”?
TRP-2 mRNA level vs control (Trp-2; 0.2 µM): decreased slightly compared to the control; Trp-2 mRNA expression vs control (Trp-2; 1.6 µM): significantly reduced the expression levels of all measured genes; concentration from which Trp-2 mRNA expression decreased (Trp-2; vs control): 0.2 µM; Trp-2 mRNA expression vs arbutin (Trp-2; VY-9 1.6 µM vs arbutin 0.2 mM): significantly decreased compared to arbutin; Tyr mRNA expression vs control (Tyr [1]; 1.6 µM): significantly reduced the expression levels of all measured genes; concentration from which Tyr mRNA expression decreased (Tyr [1]; vs control): 0.4 µM; TYR protein expression vs control (Tyr [2]; 1.6 µM): the expression of all proteins decreased compared to the control; concentration from which TYR protein expression decreased (Tyr [2]; western blot): 0.4 µM; reduction in melanin content (B16F10 melanoma cells): 52.31%; inhibition type, di-phenolase (mushroom TYR): competitive inhibitor
